# Legend:
# [1] = test system: COc1cccc(C(=O)N[C@@H]2[C@H](O)[C@@H](CO)O[C@H]2n2cnc3c(NCc4cccc5ccccc45)ncnc32)c1
# Description: Binding affinity for NAD- in human glyceraldehyde-3-phosphate dehydrogenase (GAPDH)
# Description for Trypanosoma: Binding affinity for NAD- in trypanosomal glyceraldehyde-3-phosphate dehydrogenase (GAPDH)
# Chain of Glyceraldehyde-3-phosphate dehydrogenase (Homo sapiens), P04406 (P04406 whole entry): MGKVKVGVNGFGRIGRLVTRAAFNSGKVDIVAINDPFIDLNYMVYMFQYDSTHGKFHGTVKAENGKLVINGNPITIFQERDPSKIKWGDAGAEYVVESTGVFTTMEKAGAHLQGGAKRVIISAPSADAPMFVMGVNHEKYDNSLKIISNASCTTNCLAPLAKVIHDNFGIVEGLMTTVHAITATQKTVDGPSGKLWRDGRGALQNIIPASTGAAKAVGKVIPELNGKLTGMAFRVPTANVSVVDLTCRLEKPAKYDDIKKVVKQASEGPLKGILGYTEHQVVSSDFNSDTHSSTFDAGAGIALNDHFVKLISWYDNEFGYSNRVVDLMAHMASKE
Km (Trypanosoma),Compound,Km [1]
0.45 µM,COc1cccc(C(=O)N[C@@H]2[C@H](O)[C@@H](CO)O[C@H]2n2cnc3c(NCc4cccc5ccccc45)ncnc32)c1,–
–,"Glyceraldehyde-3-phosphate dehydrogenase (Homo sapiens), P04406",0.04 µM

# Source: ChEMBL document CHEMBL1133799, “A disubstituted NAD+ analogue is a nanomolar inhibitor of trypanosomal glyceraldehyde-3-phosphate dehydrogenase” (Bioorg Med Chem Lett, 2001)
